Results taken from US4643989A, “Inhibition of aldosterone secretion” (The Salk Institute for Biological Studies, priority 1984, dated 1987).
Bridges are numbered along the chain shown (N, C = ends).

Experiments:
[1] = tested on: rat adrenoglomerulosa cells; experiment: Basal secretion of aldosterone by rat glomerulosa cells (radioimmunoassay); type: cell-based; details: for testing as set forth in Example II (inhibition of aldosterone secretion by rat glomerulosa cells): compared with rANF(8-33) results of Example II
Protocol: (§1) Rat adrenoglomerulosa cells are obtained by enzymatic digest of adrenals harvested from peripubertal male Sprague Dawley rats(Holtzman, 125 g) using previously described methods, and testing is carried out to determine the effect of synthetic rANF(8-33) on the basal secretion of aldosterone by rat glomerulosa cells. Rat glomerulosa cells are prepared by enzymatic digestion of 20 rat adrenals after ennucleation. The cells remaining on the capsule are digested for 30 minutes with a mixture of collagenase and DNase (4 mg/ml, 4 μg/ml). Dispersed cells are filtered through gauze and centrifuged at 800 rpm for 15 minutes. The pellet is resuspended in M199 buffer containing 0.1% bovine serum albumin(BSA), and the cells are centrifuged at 800 rpm for 15 minutes. The cell pellet is again resuspended in M199-0.1% BSA buffer and distributed in 900-μl aliquots to 12×75 plastic tubes. The samples are preincubated for 90 minutes in a 37° C. waterbath under an atmosphere of 5% CO2 -95% O2. Aliquots of the test samples are added in a 100 μl volume and incubated for 4 hours. Aldosterone and corticosterone are measured by radioimmunoassay using antisera purchased from Endocrine Sciences, Oxnard, Calif. and [^3 H]-labelled steroid from New England Nuclear, Boston, Mass. Results are the mean±SEM of 7 replicates. Statistical analysis is performed by analysis of variance, and all points are significant (p<0.01) from control. In concentrations as low as ≤10^-9 M, there is a significant (p<0.01) inhibition of aldosterone synthesis that is even more accentuated when the higher concentrations are tested (p<0.001).

rat glomerulosa cells [2] = experiment: ACTH-stimulated aldosterone secretion by rat glomerulosa cells; type: cell-based; details: equimolar amounts of ACTH and peptide; p<0.001 versus secretagogue alone
Protocol: as §1, with “Aliquots of the test samples are added in a 100 μl volume and incubated for 4 hours.” left out, “Results are the mean±SEM of 7 replicates. Statistical analysis is performed by analysis of variance, and all points are significant (p<0.01) from control. In concentrations as low as ≤10^-9 M, there is a significant (p<0.01) inhibition of aldosterone synthesis that is even more accentuated when the higher concentrations are tested (p<0.001).” left out
(§2) Similar inhibitory effects on aldosterone formation are obtained when its secretion by the glomerulosa cells in vitro is stimulated with either ACTH or AN-II. […] Aldosterone secretion is measured as above by radioimmunoassay. […]

rat glomerulosa cells [3] = experiment: AN-II-stimulated aldosterone secretion by rat glomerulosa cells; type: cell-based; details: equimolar amounts of AN-II and peptide; p<0.001 versus secretagogue alone
Protocol: as §1, with “Aliquots of the test samples are added in a 100 μl volume and incubated for 4 hours.” left out, “Results are the mean±SEM of 7 replicates. Statistical analysis is performed by analysis of variance, and all points are significant (p<0.01) from control. In concentrations as low as ≤10^-9 M, there is a significant (p<0.01) inhibition of aldosterone synthesis that is even more accentuated when the higher concentrations are tested (p<0.001).” left out
as §2

rat glomerulosa cells [4] = experiment: Corticosterone formation by rat glomerulosa cells (radioimmunoassay); type: cell-based; details: 10^-7 M peptide
Protocol: as §1
In other experiments, ANF(8-33) had no effect on pituitary ACTH secretion.

pituitary ACTH secretion = experiment: Pituitary ACTH secretion; details: other experiments

H-Arg-Arg-Ser-Ser-Cys-Phe-Gly-Gly-Arg-Met-Asp-Arg-Ile-Gly-Ala-Gln-Ser-Gly- Leu-Gly-Cys-Asn-Ser-Phe-Tyr-OH (H-RRSSCFGGRMDRIGAQSGLGCNSFY-OH; disulfide 5-21; ends not checked) [hANF(8-33)]
testing as set forth in Example II (inhibition of aldosterone secretion by rat glomerulosa cells) [1]: comparable results

rANF(8-30): rat ANF fragment 8-30
testing as set forth in Example II (inhibition of aldosterone secretion by rat glomerulosa cells) [1]: comparable results

rANF(8-32)--NH2: C-terminal amide of rat ANF fragment 8-32
testing as set forth in Example II (inhibition of aldosterone secretion by rat glomerulosa cells) [1]: comparable results

rANF(8-33): 26-residue fragment of rat atrial natriuretic factor with disulfide bond between the Cys residues
stimulation of aldosterone [1]: at no point was rANF(8-33) observed to stimulate aldosterone | concentration giving significant inhibition of aldosterone synthesis (basal secretion) ([1]; basal, 4 hours incubation, p<0.01 versus control, more accentuated at higher concentrations (p<0.001)): ≤ 10^-9 M | inhibition of ACTH-stimulated aldosterone secretion (rat glomerulosa cells [2]): significant inhibition of aldosterone secretion | inhibition of AN-II-stimulated aldosterone secretion (rat glomerulosa cells [3]): significant inhibition of aldosterone secretion | basal corticosterone formation (rat glomerulosa cells [4]; decrease from 24.7±0.8 ng/ml without peptide): 7.8 ± 0.3 ng/mL | AN-II-stimulated corticosterone formation (rat glomerulosa cells [4]; decrease from 37.2±1.4 ng/ml without peptide, p<0.001): 21.9 ± 0.9 ng/mL | ACTH-stimulated corticosterone formation (rat glomerulosa cells [4]; decrease from 43.4±0.7 ng/ml without peptide, p<0.001): 36.1 ± 0.7 ng/mL | effect on pituitary ACTH secretion (pituitary ACTH secretion): no effect

rANF(5-33): rat ANF fragment 5-33
testing as set forth in Example II (inhibition of aldosterone secretion by rat glomerulosa cells) [1]: comparable results

rANF(3-33)--NH2: C-terminal amide of rat ANF fragment 3-33
testing as set forth in Example II (inhibition of aldosterone secretion by rat glomerulosa cells) [1]: comparable results
